Results reported in patent publication US20250127772A1, “SPECIFIC TETRADENTATE COPPER CHELATORS FOR THE TREATMENT OF WILSON'S DISEASE” (GUANGDONG UNIVERSITY OF TECHNOLOGY, priority 2023, published 2025).

System: hepatic DEPs
Assay: Hepatic differentially expressed proteins (TMT LC-MS/MS) in treated TX mice
Assay type: in vivo, mouse
Description: In order to confirm the positive role of TDMQ20 in the treatment of TX mice, we performed proteomic experiments. Samples from three mice of each group were depicted in Table 1, The samples were treated with TMT (Tandem Mass Tag) and detected by quantitative LC-MS/MS, then the data were analyzed with ProteomeDiscoverer 2.4.1.15 (ThermoFisher Scientific). Confidence proteins were screened according to the criteria of Sequest program score greater than 0 and number of unique peptides greater than or equal to 1, and blank values were removed.
Other differentially expressed proteins (DEPs) were screened at p<0.05 in the WD mouse group compared to the control group. […] Results are reported in Table 3 and 4 for hepatic and serum proteins, respectively.

[1] = liver, 25 mg/kg/day, DEP down-regulated in WD
[2] = liver, 25 mg/kg/day, DEP up-regulated in WD
[3] = liver, 50 mg/kg/day, DEP down-regulated in WD

## CN(C)CCNCCc1ccc2c(Cl)cc(Cl)c(N)c2n1 [TDMQ20]
TDMQ20 50 mg/kg
  hepatic DEPs TDMQ20-H/control ratio: ~1
TDMQ20 at 25 or 50 mg/kg
  hepatic DEPs after treatment: reversed to normal values
[1]
  TDMQ20-M/control fold change: 2-Oxo-4-hydroxy-4-caboxy-5-ureidoimidazoline decarboxylase (Urad): 0.93
  TDMQ20-M/control fold change: ATP-citrate synthase (Acly): 0.86
  TDMQ20-M/control fold change: Alcohol deshydrogenase class-3 (Adh5): 0.89
  TDMQ20-M/control fold change: Aspartate-tRNA ligase, cytoplasmic (Dars1): 1.03
  TDMQ20-M/control fold change: Charged multivesicular body protein 7 (Chmp7): 1.04
  TDMQ20-M/control fold change: Cytochrome P450 2C70 (Cyp2c70): 0.85
  TDMQ20-M/control fold change: Desmin (Des): 0.88
  TDMQ20-M/control fold change: Mesencephalic astrocyte-derived neurotrophic factor (Manf): 0.94
  TDMQ20-M/control fold change: Nicotinamide/nicotinic acid mononucleotide adenylyltransferase 3 (Nmnat3): 0.97
  TDMQ20-M/control fold change: Progranulin (Gm): 1.05
  TDMQ20-M/control fold change: Putative phospholipase B-like 2 (Plbd2): 0.98
  TDMQ20-M/control fold change: Pyridoxine-5′-phosphate oxidase (Pnpo): 1.01
  TDMQ20-M/control fold change: Ribosome biogenesis protein BOP1 (Bop1): 1.08
  TDMQ20-M/control fold change: Triosephosphate isomerase (Tpi1): 0.85
[2]
  TDMQ20-M/control fold change: 28 kDa heat- and acid-stable phosphoprotein (Pdap1): 1.15
  TDMQ20-M/control fold change: AN1-type zinc finger protein 6 (Zfand6): 1.09
  TDMQ20-M/control fold change: ATP synthase subunit a (Mtatp6): 1.04
  TDMQ20-M/control fold change: Afadin (Afdn): 1.07
  TDMQ20-M/control fold change: Agmatinase, mitochondrial (Agmat): 1.15
  TDMQ20-M/control fold change: Alanine glyoxylate aminotransferase (Agxt): 1.18
  TDMQ20-M/control fold change: Alpha-1-antitrypsin-1-2 (Serpina1b): 1.09
  TDMQ20-M/control fold change: Cyclin-dependent kinase inhibitor 1B (Cdkn1b): 1.13
  TDMQ20-M/control fold change: Epsin-1 (Epn1): 1.05
  TDMQ20-M/control fold change: Exosome complex exonuclease RRP44 (Dis3): 1.16
  TDMQ20-M/control fold change: Histone H2A.V: 1.14
  TDMQ20-M/control fold change: Histone H2B type 1-H (H2bc9): 1.05
  TDMQ20-M/control fold change: Histone H4 (H4c16): 1.12
  TDMQ20-M/control fold change: Mitochondrial dicarboxylase carrier (Slc25a10): 1.10
  TDMQ20-M/control fold change: Mitochondrial outer membrane protein SLC25A46 (Slc25a46): 1.10
  TDMQ20-M/control fold change: NADPH adrenodoxin oxidoreductase, mitochondrial (Fdxr): 1.10
  TDMQ20-M/control fold change: OCIA domain-containing protein 1 (Ociad1): 1.14
  TDMQ20-M/control fold change: PRKC apoptosis WT1 regulator protein (Pawr): 1.10
  TDMQ20-M/control fold change: Peroxisomal membrane protein-2 (Pxmp2): 1.14
  TDMQ20-M/control fold change: Probable ATP-dependent RNA helicase DDX17 (Ddx17): 1.01
  TDMQ20-M/control fold change: Protein Hook homolog 1 (Hook1): 1.07
  TDMQ20-M/control fold change: Protein LYRIC (Mtdh): 0.85
  TDMQ20-M/control fold change: Protein scribble homolog (Scrib): 1.07
  TDMQ20-M/control fold change: Protein-glutamine gamma-glutamyltransferase K (Tgm1): 0.90
  TDMQ20-M/control fold change: Regucalcin (Rgn): 1.07
  TDMQ20-M/control fold change: Ribonuclease P protein subunit p30 (Rpp30): 1.20
  TDMQ20-M/control fold change: SET nuclear proto-oncogene (Set): 0.95
  TDMQ20-M/control fold change: Sideroflexin-5 (Sfxn5): 1.06
  TDMQ20-M/control fold change: Zinc transporter 10 (Slc30a10): 0.94
[3]
  TDMQ20-H/control fold change: 2-Oxo-4-hydroxy-4-caboxy-5-ureidoimidazoline decarboxylase (Urad): 0.96
  TDMQ20-H/control fold change: ATP-citrate synthase (Acly): 0.97
  TDMQ20-H/control fold change: Alcohol deshydrogenase class-3 (Adh5): 0.86
  TDMQ20-H/control fold change: Aspartate-tRNA ligase, cytoplasmic (Dars1): 1.13
  TDMQ20-H/control fold change: Charged multivesicular body protein 7 (Chmp7): 0.94
  TDMQ20-H/control fold change: Cytochrome P450 2C70 (Cyp2c70): 0.88
  TDMQ20-H/control fold change: Desmin (Des): 0.88
  TDMQ20-H/control fold change: Mesencephalic astrocyte-derived neurotrophic factor (Manf): 0.91
  TDMQ20-H/control fold change: Nicotinamide/nicotinic acid mononucleotide adenylyltransferase 3 (Nmnat3): 0.94
  TDMQ20-H/control fold change: Progranulin (Gm): 1.04
  TDMQ20-H/control fold change: Putative phospholipase B-like 2 (Plbd2): 0.99
